According to patent US5990158A, “Carboxylic acid derivatives, method of manufacturing the same and therapeutic agents containing these compounds” (Kotobuki Seiyaku Co., Ltd., priority 1996, dated 1999):

Tests used:
[1] = target: T1, MMP-9 (gelatinase B) (Homo sapiens, UniProt P14780); experiment: MMP-9 (gelatinase B) inhibitory activity, FITC-labeled type IV collagen degradation; type: biochemical; settings: 50% inhibition of collagen type IV degradation; MMP-9 derived from human fibrosarcoma; 42° C., 4 h
T1 construct: purchased Yagai Co. Ltd; host or cells: human fibrosarcoma
Procedure: (§1) Experiment 2: MMP-2 (gelatinase A) and MMP-9 (gelatinase B) inhibitory activities.
(§2) Pro MMP-2 was obtained from culture medium separated from human pro-MMP-2 cDNA tranfected COS-1 cells. It was activated by 1 mM (p-aminophenyl)mercury acetic acid, and MMP-9, derived human fibrosarcome,was purchased from Yagai Co. Ltd. Inhibition of both enzyme activities were estimated by enzyme assay using type IV collagenase activity assay kit (Yagai Co. Ltd., Biswaz, C. et al., J. Cell.Biochem., 28, 39 (1984)). MMP-2 or MMP-9 (0.01 U/ml), test compound (several concentrations), and FITC-labeled type IV collagen (derived bovine placenta, 25 μg) were incubated in 100 μl of 0.05M Tris - HCl buffer (pH 7.5) containing 200 mM NaCl and 5 mM CaCl2 at 42° C. for 4 h. Inhibitory activity of compound was evaluated by same as that of MMP-1 assay. Unchanged type IV collagen was precipitated by centrifugation, and the degradation percent of substrate was calculated by comparison with a fluorescence intensity of heat denatured substrate as 100%. Inhibition of enzyme activity was expressed as an IC50 value which was the concentration of test compound necessary to produce 50% inhibition of collagen type IV degradation by enzyme.

[2] = target: T2, MMP-2 (gelatinase A) (Homo sapiens, UniProt P08253); experiment: MMP-2 (gelatinase A) inhibitory activity, FITC-labeled type IV collagen degradation; type: biochemical; settings: 50% inhibition of collagen type IV degradation; activated pro MMP-2 from transfected COS-1 cells; 42° C., 4 h
T2 construct: made in house; host or cells: COS-1 cells transfected with human pro-MMP-2 cDNA (secreted into culture medium)
T2 sequence (P08253 110-660): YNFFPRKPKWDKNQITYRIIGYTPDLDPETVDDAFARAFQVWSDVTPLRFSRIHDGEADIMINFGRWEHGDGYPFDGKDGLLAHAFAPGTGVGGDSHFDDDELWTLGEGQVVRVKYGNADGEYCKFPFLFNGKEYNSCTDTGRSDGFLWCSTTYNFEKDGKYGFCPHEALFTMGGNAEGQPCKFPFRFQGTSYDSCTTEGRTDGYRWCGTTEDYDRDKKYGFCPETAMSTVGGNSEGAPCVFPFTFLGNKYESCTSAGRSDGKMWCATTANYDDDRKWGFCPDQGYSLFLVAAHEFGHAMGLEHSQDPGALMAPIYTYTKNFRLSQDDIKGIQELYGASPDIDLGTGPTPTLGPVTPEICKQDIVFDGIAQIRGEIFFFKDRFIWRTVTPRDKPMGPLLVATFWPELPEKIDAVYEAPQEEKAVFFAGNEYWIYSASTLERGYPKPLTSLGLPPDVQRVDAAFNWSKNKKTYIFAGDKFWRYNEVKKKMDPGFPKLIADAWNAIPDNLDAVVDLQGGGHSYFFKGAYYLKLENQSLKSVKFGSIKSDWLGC
Procedure: as §1, §2

T1 sequence (P14780 94-707): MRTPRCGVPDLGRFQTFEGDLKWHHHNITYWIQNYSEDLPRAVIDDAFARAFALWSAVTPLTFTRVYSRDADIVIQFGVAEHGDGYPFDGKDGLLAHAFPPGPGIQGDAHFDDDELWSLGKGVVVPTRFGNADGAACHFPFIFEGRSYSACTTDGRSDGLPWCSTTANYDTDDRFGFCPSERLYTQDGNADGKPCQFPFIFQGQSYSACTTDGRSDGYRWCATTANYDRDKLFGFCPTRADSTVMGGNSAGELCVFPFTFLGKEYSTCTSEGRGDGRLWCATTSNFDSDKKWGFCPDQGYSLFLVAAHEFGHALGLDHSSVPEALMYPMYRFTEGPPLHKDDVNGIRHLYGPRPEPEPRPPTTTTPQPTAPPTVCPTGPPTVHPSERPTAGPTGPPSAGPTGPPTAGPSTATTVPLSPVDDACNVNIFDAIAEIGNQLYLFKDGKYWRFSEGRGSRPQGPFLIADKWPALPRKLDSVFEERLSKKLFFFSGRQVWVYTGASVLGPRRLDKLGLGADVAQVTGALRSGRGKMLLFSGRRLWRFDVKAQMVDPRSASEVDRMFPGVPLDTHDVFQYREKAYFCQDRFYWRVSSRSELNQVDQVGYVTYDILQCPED

Which IC50 [1] does the source give for `COc1ccc(C[C@H](NC(=O)[C@H](CCCOc2ccc(OC)cc2)CC(=O)NO)C(=O)NC(C)(C)C)cc1` [Compound 49, (2S)-2-[(2R)-2-(2'-Hydroxyamino-2'-oxo-ethyl)-5-[(4-methoxyphenyl)oxy]-pentanoyl]amino-3-(4-methoxy)phenyl-propanoyl-tert-butylamide] here?
The IC50 was 0.42 nM.

What about the IC50 [2] of the same compound?
The IC50 was 26 nM.

For `CNC(=O)[C@H](Cc1ccc(OC)cc1)NC(=O)[C@H](CCc1ccc2cccccc1-2)CC(=O)NO` [Compound 33, (2S)-2-[(2R)-2-(2'-Hydroxyamino-2'-oxo-ethyl)-4-(azulene-1-yl)butyloyl]amino-3-(4-methoxy)phenylpropanoylmethylamide], which IC50 [1] is on record?
The IC50 was 18 nM.

What about the IC50 [2] of the same compound?
Its IC50 is 160 nM.

`CNC(=O)[C@H](Cc1ccccc1)NC(=O)[C@H](CCCOc1ccc(OC)cc1)CC(=O)O` [Compound 10, N-[(2R)-2-(1'-Carboxymethyl)-5-[(4-methoxyphenyl)oxy]pentanoyl]-L-phenylanine N-Methylamide] was tested. Which IC50 [1] did it give?
Its IC50 is 5.1 nM.

What about the IC50 [2] of the same compound?
The IC50 was 50 nM.

For `CNC(=O)[C@H](Cc1ccccc1)NC(=O)[C@H](CCc1ccc2cccccc1-2)CC(=O)O` [Compound 2, N-[(2R)-2-(1'-Carboxymethyl)-4-(azulene-1-yl)butyroyl]-L-phenylalanine N-Methylamide], which IC50 [1] is on record?
Its IC50 is 1300 nM.

And the IC50 [2]?
The IC50 was 390 nM.

With `CCOc1ccc(OCCC[C@H](CC(=O)NO)C(=O)N[C@@H](Cc2ccccc2)C(=O)NC)cc1` [Compound 43, N-[(2R)-2-(2'-Hydroxyamino-2'-oxo-ethyl)-5-[(4-ethoxy-phenyl)oxy]pentanoyl]-L-phenylalanine N-Methylamide] as the compound, how does the IC50 [1] read?
The IC50 was 0.14 nM.

And the IC50 [2]?
Its IC50 is 0.97 nM.

With `CNC(=O)[C@H](Cc1ccc(OC)cc1)NC(=O)[C@H](CCCCOc1ccc(OC)cc1)CC(=O)O` [Compound 21, (2S)-2-[(2R)-2-(1'-Carboxymethyl)-6-[(4-methoxyphenyl)-oxy]hexanoyl]amino-3-(4-methoxy)phenylpropanoylmethylamide] as the compound, how does the IC50 [1] read?
The IC50 was 52 nM.

What about the IC50 [2] of the same compound?
The IC50 was 160 nM.

For `CNC(=O)[C@H](Cc1ccccc1)NC(=O)[C@H](CCCCc1ccc2cccccc1-2)CC(=O)NO` [Compound 37, N-[(2R)-2-(2'-Hydroxyamino-2'-oxo-ethyl)-6-(azulene-1-yl)-hexanoyl]-L-phenylalanine N-Methylamide], which IC50 [1] is on record?
Its IC50 is 2900 nM.

What about the IC50 [2] of the same compound?
Its IC50 is 2700 nM.

With `CNC(=O)[C@H](Cc1ccccc1)NC(=O)[C@H](CCOc1ccc(OC)cc1)CC(=O)NO` [Compound 38, N-[(2R)-2-(2'-Hydroxyamino-2'-oxo-ethyl)-4-[(4-methoxyphenyl)oxy]butyloyl]-L-phenylalanine N-Methylamide] as the compound, how does the IC50 [1] read?
Its IC50 is 2.3 nM.

And the IC50 [2]?
The IC50 was 13 nM.

What does the source list for `CNC(=O)[C@H](Cc1ccc(OC)cc1)NC(=O)[C@@H](CC(=O)NO)CC(C)(C)COC` [Compound 59, (2S)-2-[(2R)-2-(2'-Hydroxyamino-2'-oxo-ethyl)-4,4-dimethyl-5-methoxy-pentanoyl]amino-3-(4-methoxy)phenylpropanoyl-methylamide]?
IC50 [1]: 1500 nM; IC50 [2]: 6800 nM

What does the source list for `CCOc1ccc(OCC[C@H](CC(=O)NO)C(=O)N[C@@H](Cc2ccccc2)C(=O)NC)cc1` [Compound 39, N-[(2R)-2-(2'-Hydroxyamino-2'-oxo-ethyl)-4-[(4-ethoxy-phenyl)oxy]butyloyl]-L-phenylalanine N-Methylamide]?
IC50 [1]: 1.4 nM; IC50 [2]: 8.8 nM

Which results are given for `CNC(=O)[C@H](Cc1ccc(OC)cc1)NC(=O)[C@H](CCc1ccc2cccccc1-2)CC(=O)O` [Compound 3, (2S)-2-[(2R)-2-(1'-Carboxymethyl)-4-(azulene-1-yl)butyroyl)amino-3-(4-methoxy)phenylpropanoylmethylamide]?
IC50 [1]: 280 nM; IC50 [2]: 240 nM

With `C=CCOc1ccc(OCCCC[C@H](CC(=O)O)C(=O)N[C@@H](Cc2ccccc2)C(=O)NC)cc1` [Compound 16, N-[(2R)-2-(1'-Carboxymethyl)-6-[(4-allyloxyphenyl)oxy]hexanoyl]-L-phenylananine N-Methylamide] as the compound, how does the IC50 [1] read?
Its IC50 is 1000 nM.

What about the IC50 [2] of the same compound?
The IC50 was 180 nM.

What does the source list for `COc1ccc(OCCC[C@H](CC(=O)O)C(=O)N[C@@H](Cc2ccccc2)C(=O)NC(C)(C)C)cc1` [Compound 11]?
IC50 [1]: 14 nM; IC50 [2]: 100 nM

For `CCOc1ccc(OCCC[C@H](CC(=O)O)C(=O)N[C@@H](Cc2ccccc2)C(=O)NC)cc1` [Compound 13, N-[(2R)-2-(1'-Carboxymethyl)-5-[(4-ethoxyphenyl)oxy]pentanoyl]-L-phenylalanine N-Methylamide], which IC50 [1] is on record?
The IC50 was 13 nM.

What about the IC50 [2] of the same compound?
The IC50 was 18 nM.

What does the source list for `CNC(=O)[C@@H]1Cc2ccccc2CN1C(=O)[C@H](CCCOc1ccc(OC)cc1)CC(=O)O` [Compound 27, N-[(2R)-2-(1'-Carboxymethyl)-5-[(4-methoxyphenyl)oxy]pentanoyl]-L-tetrahydroisoquinoline N-Methylamide]?
IC50 [1]: 1500 nM; IC50 [2]: > 10000 nM

Which IC50 [1] does the source give for `CCOc1ccc(OCCC[C@H](CC(=O)OCc2oc(=O)oc2C)C(=O)N[C@@H](Cc2ccccc2)C(=O)NC)cc1` [Compound 62] here?
Its IC50 is 120 nM.

What about the IC50 [2] of the same compound?
Its IC50 is 500 nM.

For `COc1ccc(OCCC[C@H](CC(=O)NO)C(=O)N[C@@H](Cc2ccccc2)C(=O)NCCS(N)(=O)=O)cc1` [Compound 42, 2-[N-[(2R)-2-(2'-Hydroxyamino-2'-oxo-ethyl)-5-[(4-methoxyphenyl)oxy]pentanoyl]-L-phenylalanyl]amino-ethanesulfonamide], which IC50 [1] is on record?
Its IC50 is 0.051 nM.

What about the IC50 [2] of the same compound?
The IC50 was 0.36 nM.

`CNC(=O)[C@H](Cc1ccccc1)NC(=O)[C@H](CCCc1ccc2cccccc1-2)CC(=O)O` [Compound 5, N-[(2R)-2-(1'-Carboxymethyl)-5-(azulene-1-yl)pentanoyl]-L-phenylalanine N-Methylamide] was tested. Which IC50 [1] did it give?
The IC50 was 2800 nM.

And the IC50 [2]?
Its IC50 is > 10000 nM.

`CCOc1ccc(C[C@H](NC(=O)[C@H](CCc2ccc3cccccc2-3)CC(=O)O)C(=O)NC)cc1` [Compound 6, (2S)-2-[(2R)-2-(1'-Carboxymethyl)-4-(azulene-1-yl)butyroyl]amino-3-(4-ethoxy)phenylpropanoyl methylamide] was tested. Which IC50 [1] did it give?
Its IC50 is 360 nM.

What about the IC50 [2] of the same compound?
The IC50 was 1000 nM.

With `CNC(=O)[C@H](Cc1ccccc1)NC(=O)[C@H](CCCCc1ccc2cccccc1-2)CC(=O)O` [Compound 7, N-[(2R)-2-(1'-Carboxymethyl)-6-(azulene-1-yl)hexanoyl]-L-phenylalanine N-Methylamide] as the compound, how does the IC50 [1] read?
The IC50 was 3000 nM.

What about the IC50 [2] of the same compound?
Its IC50 is > 10000 nM.

For `CCOc1ccc(C[C@H](NC(=O)[C@H](CCCOc2ccc(OC)cc2)CC(=O)O)C(=O)NC)cc1` [Compound 22, (2S)-2-[(2R)-2-(1'-Carboxymethyl)-5-[(4-methoxyphenyl)-oxy]pentanoyl]amino-3-(4-ethoxy)phenylpropanoylmethylamide], which IC50 [1] is on record?
The IC50 was 9.5 nM.

And the IC50 [2]?
Its IC50 is 140 nM.

Which results are given for `CCOc1ccc(OCCCC[C@H](CC(=O)O)C(=O)N[C@@H](Cc2ccccc2)C(=O)NC)cc1` [Compound 15, N-((2R)-2-(1'-Carboxymethyl)-6-[(4-ethoxyphenyl)oxy]hexanoyl]-L-phenylananine N-Methylamide]?
IC50 [1]: 420 nM; IC50 [2]: 61 nM

`CNC(=O)[C@@H](NC(=O)[C@H](CCc1ccc2cccccc1-2)CC(=O)O)C(C)(C)C` [Compound 4, N-[(2R)-2-(1'-Carboxymethyl)-4-(azulene-1-yl)butyroyl]-L-tert-leucine N-Methylamide] was tested. Which IC50 [1] did it give?
Its IC50 is 300 nM.

What about the IC50 [2] of the same compound?
The IC50 was 1000 nM.

What does the source list for `CNC(=O)[C@H](Cc1ccccc1)NC(=O)[C@H](CCCCOc1ccc(OC)cc1)CC(=O)NO` [Compound 44, N-[(2R)-2-(2'-Hydroxyamino-2'-oxo-ethyl)-6-[(4-methoxyphenyl)oxy]hexanoyl]-L-phenylalanine N-Methylamide]?
IC50 [1]: 0.41 nM; IC50 [2]: 1.3 nM

With `CNC(=O)[C@H](Cc1ccccc1)NC(=O)[C@H](CCCOc1ccc(OC)cc1)CC(=O)OCc1oc(=O)oc1C` [Compound 61] as the compound, how does the IC50 [1] read?
The IC50 was 110 nM.

And the IC50 [2]?
Its IC50 is 1000 nM.

With `CNC(=O)[C@@H](NC(=O)[C@H](CCCOc1ccc(OC)cc1)CC(=O)O)C(C)(C)C` [Compound 24, N-[(2R)-2-(1'-Carboxymethyl)-5-[(4-methoxyphenyl)oxy]pentanoyl]-L-tert-leucine N-Methylamide] as the compound, how does the IC50 [1] read?
The IC50 was 7.2 nM.

What about the IC50 [2] of the same compound?
Its IC50 is 140 nM.

Which IC50 [1] does the source give for `CNC(=O)[C@H](Cc1ccc(OC)cc1)NC(=O)[C@H](CCCOc1ccc(OC)cc1)CC(=O)O` [Compound 18] here?
Its IC50 is 5.4 nM.

What about the IC50 [2] of the same compound?
Its IC50 is 250 nM.
